Assay results reported in US20250250285A1, “IRON-ACTIVABLE NITROGEN-CONTAINING DERIVATIVES OF SALINOMYCIN AND NARASIN, SYNTHESIS AND USE FOR THE TREATMENT OF CANCERS” (Centre National de la Recherche Scientifique, priority 2021, published 2025).
Read-outs that look alike come from different tables or passages of the source.

How the values were obtained:
[1] = system: MCF10A; assay: IC50 on nontumorigenic epithelial breast cell MCF10A; settings: for toxicity toward nontumorigenic epithelial cells compared with respective parent compound: in words, versus parent compound
Protocol: (§2) Cell viability was evaluated by plating 4000 cells/well in 96-well plates using CellTiter-Blue viability assay according to the manufacturer's protocol. […] CellTiter-Blue reagent (Promega, G8081) was added after 72 h treatment and cells were incubated for 2 h before recording fluorescence intensities (ex. 560 nm; em. 590 nm) using a Perkin Elmer Wallac 1420 Victor2 Microplate Reader.
In addition to the above distinct patient-derived pancreatic ductal adenocarcinoma (PDAC) cell lines, the compounds were also evaluated against nontumorigenic epithelial breast cell MCF10A.

[2] = system: HMLER CD44^low/CD24^high cells; assay: IC50 on control epithelial HMLER CD44low/CD24high cells; assay type: cell-based, human
Description: (§1) The inventors also evaluated the biological activity of prodrugs and parent structures against transformed human mammary epithelial HMLER CD44^high/CD24^low cells, a model of human breast cancer stem cells stable in the mesenchymal state, and against control epithelial HMLER CD44^low/CD24^high cells.

[3] = system: HMLER CD44^high/CD24^low cells; assay: IC50 on HMLER CD44high/CD24low cells (breast cancer stem cell model); assay type: cell-based, human; settings: mesenchymal state
Description: as §1

[4] = system: PDAC085T; assay: Cell viability (CellTiter-Blue), IC50 on PDAC085T; assay type: cell-based, human; settings: 72 h treatment
Protocol: as §2

[5] = system: PDAC053T; assay: Cell viability (CellTiter-Blue), IC50 on PDAC053T; assay type: cell-based, human; settings: for IC50: PDAC053T, 72 h treatment, CellTiter-Blue
Protocol: PDAC053T cells were a generous gift from Juan Iovanna (INSERM) and cultured in serum-free ductal medium as published before (Gastroenterology. 2004, 127(1):250-260). Liproxstatin-1 (Sigma Aldrich, Cat #SML1414) was used at a concentration of 1 μM.

[6] = system: PDAC090T; assay: Cell viability (CellTiter-Blue), IC50 on PDAC090T; assay type: cell-based, human; settings: 72 h treatment
Protocol: as §2

[7] = system: PDAC211T; assay: Cell viability (CellTiter-Blue), IC50 on PDAC211T; assay type: cell-based, human; settings: 72 h treatment
Protocol: as §2

[8] = system: PDAC030T; assay: Cell viability (CellTiter-Blue), IC50 on PDAC030T; assay type: cell-based, human; settings: 72 h treatment
Protocol: as §2

[9] = MCF10A nontumorigenic epithelial breast cell

Row | Molecule | IC50 [1, 9] | IC50 [2] | IC50 [3] | IC50 [4] | IC50 [5] | IC50 [6] | IC50 [7] | IC50 [8] | IC50 ([1]; Homo sapiens, MCF-10A) | IC50 ([2]; Homo sapiens) | IC50 ([3]; Homo sapiens) | IC50 ([4]; Homo sapiens) | IC50 ([5]; Homo sapiens) | IC50 ([6]; Homo sapiens) | IC50 ([7]; Homo sapiens) | IC50 ([8]; Homo sapiens) | toxicity toward nontumorigenic epithelial cells compared with respective parent compound [1] | potency compared with Nar-AM23 ([5]; PDAC053T cells, in words)
1 | C#CCN[C@@H]1C=C[C@]2(O[C@H]([C@@H](CC)C(=O)[C@@H](C)[C@@H](O)[C@H](C)C3O[C@@H](C(CC)C(=O)OC)CC[C@@H]3C)[C@@H](C)C[C@H]2C)O[C@@]12CC[C@@](C)([C@H]1CC[C@](O)(CC)[C@H](C)O1)O2 (some centres unmarked) [AM9, C1 Methyl Ester of Ironomycin, reference compound] | 12200 nM | 15200 nM | 13200 nM | 8880 nM | 7460 nM | 5890 nM | 5010 nM | 5670 nM | – | – | – | – | – | – | – | – | – | –
2 | C[C@H]1[C@@H](O)O[C@@H]2O[C@@]3(C)CC[C@H]4[C@H](C)CC[C@@H]1[C@@]24OO3 [DHA, dihydroartemisinin, reference compound] | – | – | – | – | – | – | – | – | 5450 nM | 14200 nM | 2850 nM | 21600 nM | > 50000 nM | 35400 nM | 10300 nM | 8080 nM | – | –
3 | C#CCN[C@@H]1C=C[C@]2(O[C@H]([C@@H](CC)C(=O)[C@@H](C)[C@@H](O)[C@H](C)[C@@H]3O[C@@H]([C@@H](CC)C(=O)O)CC[C@@H]3C)[C@@H](C)C[C@H]2C)O[C@@]12CC[C@@](C)([C@H]1CC[C@](O)(CC)[C@H](C)O1)O2 [Ironomycin, reference compound] | 120 nM | 1790 nM | 160 nM | 720 nM | 2600 nM | 630 nM | 180 nM | 2670 nM | – | – | – | – | – | – | – | – | – | –
4 | CC[C@@H](C(=O)[C@@H](C)[C@@H](O)[C@H](C)[C@@H]1O[C@@H]([C@@H](CC)C(=O)OC2O[C@@H]3O[C@]4(C)CC[C@H]5[C@H](C)CC[C@@H]([C@H]2C)[C@@]35OO4)CC[C@@H]1C)[C@H]1O[C@]2(C=C[C@@H](O)[C@]3(CC[C@@](C)([C@H]4CC[C@](O)(CC)[C@H](C)O4)O3)O2)[C@H](C)C[C@@H]1C (some centres unmarked) [MA-I-023, Salinomycin-dihydroartemisinin prodrug] | – | – | – | – | – | – | – | – | – | 820 nM | 480 nM | 3320 nM | 3880 nM | 4530 nM | 3130 nM | 750 nM | – | –
5 | C#CCN[C@@H]1C=C[C@]2(O[C@H]([C@@H](CC)C(=O)[C@@H](C)[C@@H](O)[C@H](C)[C@@H]3O[C@@H]([C@@H](CC)C(=O)OC4O[C@@H]5O[C@]6(C)CC[C@H]7[C@H](C)CC[C@@H]([C@H]4C)[C@@]57OO6)CC[C@@H]3C)[C@@H](C)C[C@H]2C)O[C@@]12CC[C@@](C)([C@H]1CC[C@](O)(CC)[C@H](C)O1)O2 (some centres unmarked) [MA-I-062, Ironomycin-dihydroartemisinin prodrug] | – | – | – | – | – | – | – | – | 2030 nM | 480 nM | 160 nM | 1170 nM | 1790 nM | 2190 nM | 100 nM | 500 nM | less toxic | –
6 | CC[C@@H](C(=O)OC1O[C@@H]2O[C@]3(C)CC[C@H]4[C@H](C)CC[C@@H]([C@H]1C)[C@@]24OO3)[C@@H]1O[C@@H]([C@@H](C)[C@H](O)[C@H](C)C(=O)[C@H](CC)[C@H]2O[C@]3(C=C[C@@H](O)[C@]4(CC[C@@](C)([C@H]5CC[C@](O)(CC)[C@H](C)O5)O4)O3)[C@H](C)C[C@@H]2C)[C@@H](C)C[C@@H]1C (some centres unmarked) [MA-I-081, narasin-dihydroartemisinin prodrug] | – | – | – | – | – | – | – | – | – | 500 nM | 190 nM | 440 nM | 540 nM | 740 nM | 450 nM | 90 nM | – | –
7 | CC[C@@H](C(=O)OC1O[C@@H]2O[C@]3(C)CC[C@H]4[C@H](C)CC[C@@H]([C@H]1C)[C@@]24OO3)[C@@H]1O[C@@H]([C@@H](C)[C@H](O)[C@H](C)C(=O)[C@H](CC)[C@H]2O[C@]3(C=C[C@@H](NC4CC4)[C@]4(CC[C@@](C)([C@H]5CC[C@](O)(CC)[C@H](C)O5)O4)O3)[C@H](C)C[C@@H]2C)[C@@H](C)C[C@@H]1C (some centres unmarked) [MA-I-095, C20-cyclopropylaminonarasin-dihydroartemisinin prodrug] | – | – | – | – | – | – | – | – | 5240 nM | 1960 nM | 760 nM | 70 nM | 90 nM | 180 nM | 490 nM | 120 nM | less toxic | more potent
8 | C#CCN[C@H]1C=C[C@]2(O[C@H]([C@@H](CC)C(=O)[C@@H](C)[C@@H](O)[C@H](C)[C@@H]3O[C@@H]([C@@H](CC)C(=O)OC4O[C@@H]5O[C@]6(C)CC[C@H]7[C@H](C)CC[C@@H]([C@H]4C)[C@@]57OO6)CC[C@@H]3C)[C@@H](C)C[C@H]2C)O[C@@]12CC[C@@](C)([C@H]1CC[C@](O)(CC)[C@H](C)O1)O2 (some centres unmarked) [MA-I-096] | – | – | – | – | – | – | – | – | 1370 nM | 360 nM | 200 nM | 360 nM | 520 nM | 690 nM | 330 nM | 90 nM | – | –
9 | CC[C@@H](C(=O)O)[C@@H]1O[C@@H]([C@@H](C)[C@H](O)[C@H](C)C(=O)[C@H](CC)[C@H]2O[C@]3(C=C[C@@H](O)[C@]4(CC[C@@](C)([C@H]5CC[C@](O)(CC)[C@H](C)O5)O4)O3)[C@H](C)C[C@@H]2C)[C@@H](C)C[C@@H]1C [Narasin] | – | – | – | – | – | – | – | – | 790 nM | 2960 nM | 450 nM | 500 nM | 2000 nM | 1160 nM | 730 nM | 1180 nM | – | –
10 | CC[C@@H](C(=O)[C@@H](C)[C@@H](O)[C@H](C)[C@@H]1O[C@@H]([C@@H](CC)C(=O)O)CC[C@@H]1C)[C@H]1O[C@]2(C=C[C@@H](O)[C@]3(CC[C@@](C)([C@H]4CC[C@](O)(CC)[C@H](C)O4)O3)O2)[C@H](C)C[C@@H]1C [Salinomycin] | – | – | – | – | – | – | – | – | 1130 nM | 4360 nM | 1380 nM | 1560 nM | 4500 nM | 2660 nM | 1290 nM | 1610 nM | – | –
11 | C20-cyclopropylaminosalinomycin [AM23, reference compound] | 300 nM | 500 nM | 10 nM | 360 nM | 830 nM | 210 nM | 40 nM | 110 nM | – | – | – | – | – | – | – | – | – | –
12 | C20-cyclopropyloaminonarasin [Nar-AM23] | 100 nM | 450 nM | 10 nM | 40 nM | 200 nM | 320 nM | 50 nM | 60 nM | – | – | – | – | – | – | – | – | – | –
13 | C20-epi-ironomycin [Epi-AM5] | 1340 nM | 11800 nM | 1800 nM | 670 nM | 2170 nM | 4160 nM | 1480 nM | 2870 nM | – | – | – | – | – | – | – | – | – | –
14 | C20-propargyloaminonarasin [Nar-AM5] | 220 nM | 1080 nM | 110 nM | 120 nM | 880 nM | 800 nM | 220 nM | 220 nM | – | – | – | – | – | – | – | – | – | –
